Calls of active or inactive are those of the source. The calls are words filed in the database; no cut-off is given here.
Experiments:
[1] = biological target: T1, Glutamate receptor ionotropic, NMDA 2B (Homo sapiens, UniProt Q05586+Q13224); assay: Displacement of [3H](E)-N1-(2-methoxybenzyl)cinnamamidine from human NR2B expressed in Ltk- cells; format: cell-based
Cytochrome P450 2C9 = Cytochrome P450 2C9 (Homo sapiens, UniProt P11712)
Description: Inhibition of CYP2C9 in human liver microsomes

[2] = Drug level in rat brain at 30 mg/kg, po after 1 hr; format: ADME, organism-based; parameters: dose 30 mg/kg, route oral; conditions: read-out: Drug uptake
Cytochrome P450 2D6 = Cytochrome P450 2D6 (Homo sapiens, UniProt P10635); assay: Inhibition of CYP2D6 in human liver microsomes
[3] = Plasma concentration in rat at 30 mg/kg, po after 1 hr; format: ADME, organism-based; parameters: dose 30 mg/kg, route oral
Cytochrome P450 3A4 = Cytochrome P450 3A4 (Homo sapiens, UniProt P08684); assay: Inhibition of CYP3A4 in human liver microsomes
Rattus norvegicus [4] = assay: Reversal of carrageenan-induced mechanical hyperalgesia in rat at 10 mg/kg, po after 1 hr; format: functional
Canis familiaris [5] = assay: AUC in Beagle dog at 1 mg/kg, iv; format: ADME, organism-based, Canis lupus familiaris, Plasma; parameters: dose 1 mg/kg, route intravenous; conditions: in vivo
Rattus norvegicus [6] = assay: […] in rat measured as motor impairment upto 100 mg/kg, po by rotarod assay; format: functional, organism-based; parameters: dose 100 mg/kg
[7] = Oral bioavailability in rhesus monkey at 1 mg/kg, po; format: ADME, organism-based, Macaca mulatta; conditions: in vivo
[8] = Drug level in hyperalgesic rat plasma at 10 mg/kg, po after 1 hr; format: ADME, organism-based; parameters: dose 10 mg/kg, route oral
Rattus norvegicus [9] = assay: Plasma concentration in haloperidol-induced cataleptic rat at 30 mg/kg, po; format: ADME, organism-based; parameters: dose 30 mg/kg, route oral; conditions: in vivo
[10] = biological target: Glutamate receptor ionotropic, NMDA 2C (Homo sapiens) (UniProt Q14957); assay: Activity at human NR2C expressed in Ltk- cells by patch clamp assay upto 30 uM; format: cell-based
Rattus norvegicus [11] = assay: AUC in Sprague-Dawley rat at 2 mg/kg, iv; format: ADME, organism-based, Plasma; parameters: dose 2 mg/kg, route intravenous; conditions: in vivo
[12] = Cmax in rhesus monkey at 1 mg/kg, po; format: ADME, organism-based, Macaca mulatta; parameters: dose 1 mg/kg, route oral; conditions: in vivo
[13] = Cmax in Sprague-Dawley rat at 10 mg/kg, po; format: ADME, organism-based; parameters: dose 10 mg/kg, route oral; conditions: in vivo
Ltk- = assay: Activity at human NR1a expressed in Ltk- cells by patch clamp assay upto 30 uM; format: cell-based
[14] = biological target: Glutamate receptor ionotropic, NMDA 2D (Homo sapiens) (UniProt O15399); assay: Activity at human NR2D expressed in Ltk- cells by patch clamp assay upto 30 uM; format: cell-based
Rattus norvegicus [15] = assay: Reversal of allodynia in rat spinal nerve ligation model at 10 mg/kg, iv; format: functional, organism-based; parameters: dose 10 mg/kg
[16] = Drug level in hyperalgesic rat brain at 1 mg/kg, po after 15 mins; format: ADME, organism-based; parameters: dose 1 mg/kg, route oral; conditions: read-out: Drug uptake
Rattus norvegicus [17] = assay: Effect on allodynia in rat spinal nerve ligation model at 30 mg/kg, po; format: functional, organism-based; parameters: dose 30 mg/kg
[18] = Plasma protein binding in rat; format: ADME, cell-free; conditions: read-out: PPB (converted)
[19] = Drug level in hyperalgesic rat plasma at 1 mg/kg, po after 15 mins; format: ADME, organism-based; parameters: dose 1 mg/kg, route oral
Rattus norvegicus [20] = assay: Reversal of carrageenan-induced mechanical hyperalgesia in iv dosed rat after 15 mins; format: functional
[21] = biological target: Glutamate receptor ionotropic, NMDA 2B (Rattus norvegicus) (UniProt Q00960); assay: Receptor occupancy ex vivo by displacement of [3H](E)-N1-(2-methoxybenzyl)-cinnamamidine binding from NR2B in rat brain at 10 uM; format: tissue-based
[22] = biological target: T1, Glutamate receptor ionotropic, NMDA 2B; assay: Antagonist activity at human NR2B expressed in Ltk- cells by calcium flux assay; format: functional, cell-based
[23] = Half life in Beagle dog at 1 mg/kg, iv; format: ADME, organism-based, Canis lupus familiaris; parameters: dose 1 mg/kg, route intravenous; conditions: in vivo
Rattus norvegicus [24] = assay: Reversal of carrageenan-induced mechanical hyperalgesia in rat at 3 mg/kg, po in presence of morphine; format: functional, organism-based; parameters: dose 3 mg/kg
[25] = Oral bioavailability in Beagle dog at 1 mg/kg, po; format: ADME, organism-based, Canis lupus familiaris; conditions: in vivo
Rattus norvegicus [26] = assay: Reversal of carrageenan-induced mechanical hyperalgesia in rat at 3 mg/kg, po in presence of indomethacin; format: functional, organism-based; parameters: dose 3 mg/kg
[27] = Ratio of drug level in brain against plasma in hyperalgesic rat
Rattus norvegicus [28] = assay: Reversal of allodynia in rat spinal nerve ligation model at 3 mg/kg, iv; format: functional, organism-based; parameters: dose 3 mg/kg
[29] = Drug level in hyperalgesic rat brain at 10 mg/kg, po after 1 hr; format: ADME, organism-based; parameters: dose 10 mg/kg, route oral; conditions: read-out: Drug uptake
[30] = Cmax in Beagle dog at 1 mg/kg, po; format: ADME, organism-based, Canis lupus familiaris; parameters: dose 1 mg/kg, route oral; conditions: in vivo
[31] = biological target: Glutamate receptor ionotropic, NMDA 2A (Homo sapiens) (UniProt Q12879); assay: Activity at human NR2A expressed in Ltk- cells by patch clamp assay upto 30 uM; format: cell-based
Rhesus monkey = assay: AUC in rhesus monkey at 1 mg/kg, iv; format: ADME, organism-based, Macaca mulatta, Plasma; parameters: dose 1 mg/kg, route intravenous; conditions: in vivo
[32] = Oral bioavailability in Sprague-Dawley rat at 10 mg/kg, po; format: ADME, organism-based; conditions: in vivo
[33] = Half life in rhesus monkey at 1 mg/kg, iv; format: ADME, organism-based, Macaca mulatta; parameters: dose 1 mg/kg, route intravenous; conditions: in vivo
[34] = Half life in Sprague-Dawley rat at 2 mg/kg, iv; format: ADME, organism-based; parameters: dose 2 mg/kg, route intravenous; conditions: in vivo
Rattus norvegicus [35] = assay: Reversal of carrageenan-induced mechanical hyperalgesia in iv dosed rat; format: functional
Homo sapiens = organism: Homo sapiens; assay: Selectivity for human NR2B over hERG
Canis familiaris [36] = assay: AUC in Beagle dog at 0.5 mg/kg, iv; format: ADME, organism-based, Canis lupus familiaris, Plasma; parameters: dose 0.5 mg/kg, route intravenous; conditions: in vivo
[37] = biological target: Glutamate receptor ionotropic, NMDA 2A (Homo sapiens, UniProt Q05586+Q12879); assay: Activity at human NR2A expressed in Ltk- cells by calcium flux assay; format: cell-based
[38] = Half life in Beagle dog at 0.5 mg/kg, iv; format: ADME, organism-based, Canis lupus familiaris; parameters: dose 0.5 mg/kg, route intravenous; conditions: in vivo
Rattus norvegicus [39] = assay: Reversal of carrageenan-induced mechanical hyperalgesia in po dosed rat; format: functional
[40] = biological target: Voltage-gated inwardly rectifying potassium channel KCNH2 (Homo sapiens, UniProt Q12809)
Description: Displacement of [35S]MK-499 from hERG potassium channel expressed in HEK293 cells

T1 sequence (Q13224 whole entry, one chain of several): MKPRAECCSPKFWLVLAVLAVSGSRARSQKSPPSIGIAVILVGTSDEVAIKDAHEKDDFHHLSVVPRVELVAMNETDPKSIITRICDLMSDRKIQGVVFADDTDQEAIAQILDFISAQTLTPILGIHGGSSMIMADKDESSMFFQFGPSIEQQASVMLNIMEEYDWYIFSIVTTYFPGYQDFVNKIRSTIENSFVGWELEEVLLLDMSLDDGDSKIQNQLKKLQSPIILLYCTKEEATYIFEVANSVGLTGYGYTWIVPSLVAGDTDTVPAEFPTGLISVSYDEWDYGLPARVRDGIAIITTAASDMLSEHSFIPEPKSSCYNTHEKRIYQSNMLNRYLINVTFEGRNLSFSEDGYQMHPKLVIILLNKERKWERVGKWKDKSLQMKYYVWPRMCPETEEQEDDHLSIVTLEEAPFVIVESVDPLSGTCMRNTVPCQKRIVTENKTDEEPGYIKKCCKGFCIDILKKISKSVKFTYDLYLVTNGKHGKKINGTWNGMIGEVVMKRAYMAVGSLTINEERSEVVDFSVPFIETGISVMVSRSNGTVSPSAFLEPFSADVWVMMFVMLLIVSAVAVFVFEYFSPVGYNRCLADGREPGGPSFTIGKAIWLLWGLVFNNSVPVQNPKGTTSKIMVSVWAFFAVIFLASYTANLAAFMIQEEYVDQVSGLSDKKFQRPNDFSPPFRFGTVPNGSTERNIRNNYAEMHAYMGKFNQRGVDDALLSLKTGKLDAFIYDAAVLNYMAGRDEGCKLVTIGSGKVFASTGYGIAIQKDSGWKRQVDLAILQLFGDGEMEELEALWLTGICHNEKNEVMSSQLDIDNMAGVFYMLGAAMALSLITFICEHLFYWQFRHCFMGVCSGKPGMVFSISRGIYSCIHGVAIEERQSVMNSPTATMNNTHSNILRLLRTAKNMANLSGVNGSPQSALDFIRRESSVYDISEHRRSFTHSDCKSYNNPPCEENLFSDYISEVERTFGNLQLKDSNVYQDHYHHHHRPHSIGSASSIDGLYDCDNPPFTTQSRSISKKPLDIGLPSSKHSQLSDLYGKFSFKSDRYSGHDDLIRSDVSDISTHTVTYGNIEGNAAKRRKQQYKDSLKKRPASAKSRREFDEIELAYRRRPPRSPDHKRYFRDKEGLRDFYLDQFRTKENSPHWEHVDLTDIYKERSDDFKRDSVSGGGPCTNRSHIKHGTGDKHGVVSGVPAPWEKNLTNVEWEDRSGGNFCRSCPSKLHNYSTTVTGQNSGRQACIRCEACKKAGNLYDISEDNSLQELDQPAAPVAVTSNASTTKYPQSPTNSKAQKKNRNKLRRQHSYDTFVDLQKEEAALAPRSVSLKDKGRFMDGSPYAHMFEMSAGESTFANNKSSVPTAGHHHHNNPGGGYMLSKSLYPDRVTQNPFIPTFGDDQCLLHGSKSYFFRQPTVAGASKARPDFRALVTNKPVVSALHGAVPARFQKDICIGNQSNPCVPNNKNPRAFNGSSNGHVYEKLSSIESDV
Sequence of Cytochrome P450 2C9 (P11712 whole entry): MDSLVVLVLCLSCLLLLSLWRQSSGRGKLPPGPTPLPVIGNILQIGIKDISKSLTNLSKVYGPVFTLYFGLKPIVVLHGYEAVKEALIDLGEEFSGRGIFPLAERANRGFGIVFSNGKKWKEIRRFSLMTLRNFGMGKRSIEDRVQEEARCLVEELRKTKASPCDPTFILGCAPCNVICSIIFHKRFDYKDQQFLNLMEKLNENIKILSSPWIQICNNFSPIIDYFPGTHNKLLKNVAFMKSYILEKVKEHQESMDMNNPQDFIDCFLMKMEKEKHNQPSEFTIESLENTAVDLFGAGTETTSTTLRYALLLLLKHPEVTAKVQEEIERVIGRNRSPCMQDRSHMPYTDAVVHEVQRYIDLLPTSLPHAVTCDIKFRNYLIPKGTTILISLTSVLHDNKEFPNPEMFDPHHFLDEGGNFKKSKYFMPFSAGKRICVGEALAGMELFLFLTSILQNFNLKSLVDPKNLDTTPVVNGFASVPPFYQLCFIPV
Sequence of Cytochrome P450 2D6 (P10635 whole entry): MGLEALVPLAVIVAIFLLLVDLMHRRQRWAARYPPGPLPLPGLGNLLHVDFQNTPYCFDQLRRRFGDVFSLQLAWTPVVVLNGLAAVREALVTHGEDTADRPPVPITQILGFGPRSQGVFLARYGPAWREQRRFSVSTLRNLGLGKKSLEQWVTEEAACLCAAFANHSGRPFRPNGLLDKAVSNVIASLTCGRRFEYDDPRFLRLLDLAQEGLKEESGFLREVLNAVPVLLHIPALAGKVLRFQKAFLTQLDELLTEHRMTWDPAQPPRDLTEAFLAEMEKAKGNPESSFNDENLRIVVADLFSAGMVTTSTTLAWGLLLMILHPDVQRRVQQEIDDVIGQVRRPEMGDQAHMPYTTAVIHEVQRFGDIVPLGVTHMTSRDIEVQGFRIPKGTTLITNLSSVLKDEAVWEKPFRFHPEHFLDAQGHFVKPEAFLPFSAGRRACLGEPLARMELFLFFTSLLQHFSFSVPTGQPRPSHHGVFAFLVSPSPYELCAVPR
Sequence of Cytochrome P450 3A4 (P08684 whole entry): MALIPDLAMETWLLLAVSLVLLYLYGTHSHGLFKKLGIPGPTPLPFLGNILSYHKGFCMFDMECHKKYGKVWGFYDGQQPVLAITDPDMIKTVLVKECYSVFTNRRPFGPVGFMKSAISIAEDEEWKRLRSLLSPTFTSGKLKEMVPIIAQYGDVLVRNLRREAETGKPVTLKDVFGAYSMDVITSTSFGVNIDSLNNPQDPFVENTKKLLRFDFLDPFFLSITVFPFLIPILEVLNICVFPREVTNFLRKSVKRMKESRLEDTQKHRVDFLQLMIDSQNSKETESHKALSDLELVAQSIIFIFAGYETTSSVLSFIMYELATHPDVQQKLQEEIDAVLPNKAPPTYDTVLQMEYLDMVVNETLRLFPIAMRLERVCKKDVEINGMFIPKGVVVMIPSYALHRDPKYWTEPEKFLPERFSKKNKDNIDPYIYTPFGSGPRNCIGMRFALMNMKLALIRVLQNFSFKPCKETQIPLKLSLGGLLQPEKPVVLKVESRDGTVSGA
Sequence of Glutamate receptor ionotropic, NMDA 2A (Q12879 whole entry, one chain of several): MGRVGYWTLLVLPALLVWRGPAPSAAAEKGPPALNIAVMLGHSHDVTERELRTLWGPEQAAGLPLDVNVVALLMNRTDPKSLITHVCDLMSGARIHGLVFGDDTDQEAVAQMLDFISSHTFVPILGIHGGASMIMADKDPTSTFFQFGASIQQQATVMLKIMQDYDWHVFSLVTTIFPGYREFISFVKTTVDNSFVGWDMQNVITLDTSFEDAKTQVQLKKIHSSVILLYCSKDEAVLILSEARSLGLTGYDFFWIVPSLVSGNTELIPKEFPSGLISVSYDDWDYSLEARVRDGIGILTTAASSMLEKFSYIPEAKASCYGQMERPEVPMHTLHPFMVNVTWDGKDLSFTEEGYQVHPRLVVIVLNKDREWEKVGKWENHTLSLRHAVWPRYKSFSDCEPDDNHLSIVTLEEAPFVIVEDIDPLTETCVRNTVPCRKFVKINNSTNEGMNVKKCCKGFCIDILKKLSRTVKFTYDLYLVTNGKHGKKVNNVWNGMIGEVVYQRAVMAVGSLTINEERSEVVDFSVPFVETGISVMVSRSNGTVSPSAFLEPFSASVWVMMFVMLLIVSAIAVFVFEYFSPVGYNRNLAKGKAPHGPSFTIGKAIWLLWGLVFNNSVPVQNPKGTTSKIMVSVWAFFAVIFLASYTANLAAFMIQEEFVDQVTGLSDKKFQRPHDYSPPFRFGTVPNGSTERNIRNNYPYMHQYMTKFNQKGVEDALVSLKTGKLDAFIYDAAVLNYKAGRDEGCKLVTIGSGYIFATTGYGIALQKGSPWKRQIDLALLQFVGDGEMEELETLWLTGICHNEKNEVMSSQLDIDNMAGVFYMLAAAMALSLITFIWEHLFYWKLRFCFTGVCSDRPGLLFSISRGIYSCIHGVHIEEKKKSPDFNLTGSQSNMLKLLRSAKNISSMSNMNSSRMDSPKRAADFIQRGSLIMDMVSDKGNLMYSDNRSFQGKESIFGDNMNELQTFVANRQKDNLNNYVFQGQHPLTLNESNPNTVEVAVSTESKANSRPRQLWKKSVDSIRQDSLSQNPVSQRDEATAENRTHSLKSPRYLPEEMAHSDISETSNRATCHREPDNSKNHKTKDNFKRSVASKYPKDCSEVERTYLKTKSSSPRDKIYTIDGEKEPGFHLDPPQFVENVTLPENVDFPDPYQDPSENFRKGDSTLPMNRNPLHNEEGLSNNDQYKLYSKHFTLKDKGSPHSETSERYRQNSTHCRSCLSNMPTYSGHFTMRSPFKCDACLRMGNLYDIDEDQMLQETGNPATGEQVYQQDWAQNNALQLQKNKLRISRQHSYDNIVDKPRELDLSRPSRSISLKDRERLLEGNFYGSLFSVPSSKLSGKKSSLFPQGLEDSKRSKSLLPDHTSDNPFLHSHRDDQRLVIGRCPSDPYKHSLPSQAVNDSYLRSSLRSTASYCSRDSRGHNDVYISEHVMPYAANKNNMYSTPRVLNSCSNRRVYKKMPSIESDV

## COc1ccc(COC(=O)N2CCC(CNc3ncccn3)CC2)cc1
[1]
  Ki: 460 nM

## O=C(OCc1ccccc1)N1CCC(CNc2ncccn2)CC1
Cytochrome P450 2C9
  IC50: > 25000 nM
[2]
  concentration at 1 h: 3100 nM
Cytochrome P450 2D6
  IC50: > 25000 nM
[3]
  concentration at 1 h: 7200 nM
[1]
  Ki: 23 nM
Cytochrome P450 3A4
  IC50: > 25000 nM

## O=C(OCc1ccccc1)N1CCC(CNc2nccs2)CC1
Cytochrome P450 2C9
  IC50: > 10000 nM
Cytochrome P450 2D6
  IC50: > 10000 nM
[1]
  Ki: 122 nM
Cytochrome P450 3A4
  IC50: > 10000 nM

## Cc1ccc(COC(=O)N2CCC(Nc3ncccn3)CC2)cc1
[1]
  Ki: > 15000 nM

## CC(C)c1ccc(COC(=O)N2CCC(CNc3ncccn3)CC2)cc1
[1]
  Ki: 7.8 nM

## O=C(OCc1ccccc1)N1CCC(CNc2ccccn2)CC1
Cytochrome P450 2C9
  IC50: > 25000 nM
[2]
  concentration at 1 h: 170 nM
Cytochrome P450 2D6
  IC50: > 25000 nM
[3]
  concentration at 1 h: 180 nM
[1]
  Ki: 37 nM
Cytochrome P450 3A4
  IC50: > 25000 nM

## Cc1ccc(COC(=O)N2CCC(CNc3ncccn3)CC2)cc1
Rattus norvegicus [4]
  Activity: 50%
Canis familiaris [5]
  AUC: 7.5 µM·h
Rattus norvegicus [6]
  Activity: inactive
[7]
  bioavailability: 26%
[8]
  concentration at 1 h: 1800 nM
Rattus norvegicus [9]
  concentration: 10200 nM
[10]
  Activity: < 30%
Rattus norvegicus [11]
  AUC: 7.1 µM·h
[12]
  Cmax: 600 nM
[13]
  Cmax: 3900 nM
Ltk-
  Activity: < 30%
[14]
  Activity: < 30%
Rattus norvegicus [15]
  Activity: Active
[16]
  concentration at […]: 510 nM
Rattus norvegicus [17]
  Activity: Active
[18]
  fraction unbound: 0.153
[19]
  concentration at […]: 960 nM
Rattus norvegicus [20]
  ED50: 1 mg/kg
[21]
  Activity: Active
[22]
  EC50: 5.6 nM
[23]
  half-life: 6.9 h
Rattus norvegicus [24]
  Activity: Active
[25]
  bioavailability: 24%
Rattus norvegicus [26]
  Activity: Active
[27]
  Kp: 1.4
Rattus norvegicus [28]
  Activity: Active
[29]
  concentration at 1 h: 850 nM
[30]
  Cmax: 840 nM
[31]
  Activity: < 30%
Rhesus monkey
  AUC: 5.2 µM·h
[32]
  bioavailability: 45%
[1]
  Ki: 3.4 nM
[33]
  half-life: 2.2 h
[34]
  half-life: 2.7 h

## O=C(OCc1ccccc1F)N1CCC(CNc2ncccn2)CC1
[1]
  Ki: 18 nM

## CC(OC(=O)N1CCC(CNc2ncccn2)CC1)c1ccccc1 (racemic)
[1]
  Ki: 540 nM

## O=C(OCc1ccccc1)N1CCC(Cc2nc3ccccc3[nH]2)CC1
[1]
  Ki: 220 nM

## Cc1ccccc1COC(=O)N1CCC(CNc2ncccn2)CC1
[1]
  Ki: 227 nM

## N#CN=C(NCc1ccccc1)NN1CCC(CNc2ncccn2)CC1
[1]
  Ki: 3100 nM

## O=C(OCc1ccccc1)N1CCC(CNc2ccncc2)CC1
Rattus norvegicus [35]
  ED50: 3 mg/kg
Cytochrome P450 2C9
  IC50: 6500 nM
[2]
  concentration at 1 h: 11000 nM
Homo sapiens
  Selectivity ratio: 90
Rattus norvegicus [11]
  AUC: 1.9 µM·h
Cytochrome P450 2D6
  IC50: 15000 nM
[13]
  Cmax: 5200 nM
[3]
  concentration at 1 h: 8100 nM
Canis familiaris [36]
  AUC: 1.7 µM·h
[22]
  EC50: 1.6 nM
[25]
  bioavailability: 11%
[37]
  EC50: > 10000 nM
[38]
  half-life: 6.5 h
[30]
  Cmax: 50 nM
Rattus norvegicus [39]
  ED50: 10 mg/kg
[32]
  bioavailability: > 100%
[1]
  Ki: 10.6 nM
Cytochrome P450 3A4
  IC50: > 25000 nM
[34]
  half-life: 1.4 h

## c1ccc(COc2ccc(CCNc3ccncc3)cc2)cc1
[22]
  IC50: 102 nM
[37]
  IC50: > 20000 nM
[40]
  IC50: 130 nM
[1]
  Ki: 93 nM

## Cc1cccc(COC(=O)N2CCC(CNc3ncccn3)CC2)c1
[1]
  Ki: 206 nM

## O=C(OCc1ccc(F)cc1)N1CCC(CNc2ncccn2)CC1
[1]
  Ki: 18 nM

## c1ccc(CCCN2CCC(CNc3ncccn3)CC2)cc1
[1]
  Ki: 266 nM

## O=C(OCc1ccccc1)N1CCC(CNc2ccncn2)CC1
Cytochrome P450 2C9
  IC50: 500 nM
[2]
  concentration at 1 h: 700 nM
Cytochrome P450 2D6
  IC50: 1300 nM
[3]
  concentration at 1 h: 1100 nM
[1]
  Ki: 75 nM

## Cc1ccc(COC(=O)N2CCC(CN(C)c3ncccn3)CC2)cc1
[1]
  Ki: 2100 nM

## O=C(OCc1ccccc1)N1CCC(CNc2cccnc2)CC1
Cytochrome P450 2C9
  IC50: 12000 nM
Cytochrome P450 2D6
  IC50: 1700 nM
[1]
  Ki: 180 nM
Cytochrome P450 3A4
  IC50: 9100 nM

## CCc1ccc(COC(=O)N2CCC(CNc3ncccn3)CC2)cc1
[1]
  Ki: 3.7 nM

## O=C(NCc1ccccc1)N1CCC(CNc2ncccn2)CC1
[1]
  Ki: 1170 nM

## CC(C)(C)c1ccc(COC(=O)N2CCC(CNc3ncccn3)CC2)cc1
[1]
  Ki: 720 nM

## O=C(OCc1ccccc1)N1CCC(CNc2nncs2)CC1
Cytochrome P450 2D6
  IC50: > 25000 nM
[1]
  Ki: 190 nM

## O=C(CCc1ccccc1)N1CCC(CNc2ncccn2)CC1
[1]
  Ki: 310 nM

## Cc1ccc(COC(=O)N2CCC(COc3ncccn3)CC2)cc1
[1]
  Ki: 7400 nM

## O=C(OCc1ccccc1)N1CCC(CNc2cnccn2)CC1
Cytochrome P450 2C9
  IC50: 12000 nM
Cytochrome P450 2D6
  IC50: 1700 nM
[1]
  Ki: 14 nM
Cytochrome P450 3A4
  IC50: 22000 nM

## O=C(OCc1cccc(F)c1)N1CCC(CNc2ncccn2)CC1
[1]
  Ki: 150 nM

## O=C(OC1Cc2ccccc2C1)N1CCC(CNc2ncccn2)CC1
[1]
  Ki: 23 nM

## O=C(OCCc1ccccc1)N1CCC(CNc2ncccn2)CC1
[1]
  Ki: 227 nM

From ChEMBL document CHEMBL1141373 (J Med Chem, 2007)
